Assays:
[1] = tested on: NRP1-PlexA1 complex; assay: co-immunoprecipitation of NRP1 with PlexA1 in U373MG cells; assay type: cell-based, human; settings: 10^−7 M peptide 1 h
Experimental: (§1) (C) Rac-1 activation assay in resting condition and after Sema3A-induced Rac-1 activation in U373 MG cells. (D) Western blot analysis of phosphorylated Akt, total Akt and tubulin in U373MG cells treated with the vehicle (LDS 72 μM), Sema3A (100 ng/ml) or Sema3A + MTP-PlexA1 (10^−7 M). The lower panel is showing the quantification of the p-Akt/Akt ratio in the different conditions. (E) MTP-PlexA1 decreases VEGFR-2 phosphorylation induced by VEGF (100 ng/ml) in HUVEC cells. […]
(§2) in 20 mM sodium acetate (pH 4.5) at a flow rate of 5 μl/ min 10–7 M of MTP-PlexA1 or Vehicle (LDS, 72 µM) during until desired surface densities, measured in response 1 h. Stimulation was done with 100ng/ml Semaphorin 3A units, were reached. […] First antibodies (Rabbit anti-phospho-the elution buffer containing detergent removed non- akt, Rabbit anti-akt, Cell Signaling #4060 and #9272 biotinylated peptides rendering the chip ready for analysis respectively) and mouse anti-tubulin α (Cell Signaling with monomeric biot-MTP-PlexA1. Blank surfaces were #2144) were incubated overnight at 4°C (+ anti-NRP1, used for background corrections. Injections of 30 µl anti-PlexA4 Abcam). […] Images of the immuno-blots cells per well in a 6-well plate and serum starved overnight. were acquired and analyzed thanks to the GENE GNOME Before protein extraction, the cells were treated either with apparatus (Syngene Bio Imaging, UK).

[2] = tested on: p-Akt/Akt; assay: western blot of Akt phosphorylation in U373MG cells; assay type: cell-based, human; settings: Sema3A 100 ng/ml + MTP-PlexA1 10^−7 M
Experimental: as §1, §2

[3] = tested on: chick chorio-allantoic membrane blood vessels; assay: chick embryonic chorio-allantoic membrane assay; assay type: in vivo; settings: chick CAM, local deposition, 10^−7 M, 24 h incubation
Experimental: The CAM assay was performed using Leghorn eggs. After 4 days incubation at 37°C, the shells were opened and the embryos were transferred to a Petri dish. The CAMs were grown for additional 4 days before deposition of silicone reservoirs in a region containing one large vessel. Reservoirs were filled with 20 μl VEGF165 solution (20 μg/ml) or a combination of VEGF165 (20 μg/ml) + MTP-PlexA1 (10–7 M). After 24 h incubation, micro- photographs were taken for quantification of vessel growth. Camera lucida drawing was systematically performed to allow better counting of blood vessels and sprouting; the entire analysis being performed in blind conditions.

[4] = tested on: U373MG cells; assay: 3D migration assay, U373MG spheroids in plasma clot; assay type: cell-based, human; settings: 3D plasma clot, 24 h, VEGF 100 ng/ml, MTP-PlexA1 10–7 M
Experimental: Supplementary Figure S6: The anti-tumor effect of MTP-PlxA1 was verified in U373MG human GBM line. We found […]
Because PlexA1 is involved in cell migration we also performed a 3D migration assay. U373MG cells were grown as cell aggregates (micro tumor-like spheroids) for 24 h in plasma clot with or without VEGF. […]
migration that formed cell chains invading the 3D substrate as previously described (12). Strikingly, VEGF-induced cell migration was abolished when MTP-PlexA1 at 10–7 M was added to the cultures. […]
of PlexA1, this part of the study exemplified the therapeutic potential of MTP-PlexA1 because this peptide was able to block two major mechanisms of tumor progression.
(Stable Disease) and 62.5% PR (Partial Response).
(1 picture or pasted object on this page, not shown here)

“TLPAIVGIGGGGGLLLLVIVAVLIAYKRK [MTP-PlexA1, synthetic transmembrane peptide mimicking the TMD of PlexA1]” was tested, and the “change of NRP1 co-immunoprecipitated with PlexA1, Sema3A-induced” value ([1]; Sema3A 100 ng/ml 30 min) was −24.6%, the “reduction of NRP1 co-immunoprecipitated with PlexA1, VEGF” value ([1]; VEGF 100 ng/ml 10 min) was 39.4% and the “effect on Sema3A-induced inhibition of Akt phosphorylation” value [2] was “blocked”. For the same sequence, the “VEGFA-induced vascular growth and complexity” value [3] was “significantly inhibited” and the “VEGF-induced U373MG tumor cell migration” value [4] was “abolished”.

— PMC5295395, “Inhibition of PlexA1-mediated brain tumor growth and tumor-associated angiogenesis using a transmembrane domain targeting peptide” (Oncotarget, 2016)
